Test results taken from patent US20120196875A1, “PHARMACEUTICAL COMPOSITIONS FOR TREATMENT OF RESPIRATORY AND INFLAMMATORY DISEASES” (BOEHRINGER INGELHEIM INTERNATIONAL GMBH, priority 2010, published 2012).

Tested on: Dunkin-Harley guinea pigs (OVA broncho-constriction)
Test: OVA-induced bronchospasm in sensitized, anaesthetized guinea pigs (modified Konzett-Rössler method, pyrilamin pre-treatment)
Type: in vivo, guinea pig
Experimental: Male and female Dunkin-Harley guinea pigs were obtained from the Experimental Animal Breeding Centre of Harlan Winkelmann (Germany). After fasting overnight, but with free access to drinking water, animals with body weight of 400-500 g were used.
Bronchospasm was recorded with a modified version of the method of Konzett-Röβler (described by Walland et al, in “Compensation of muscarinic bronchial effects of talsaclidine by concomitant sympathetic activation in guinea pigs”, European Journal of Pharmacology, Volume 330, Issue 2-3, 9 July 1997, Pages 213-219). The animals were ventilated by means of a piston pump (starling ventilator, Hugo Sachs Elektronik, Germany) at a stroke volume of 1 ml/100 g body weight and at a rate of 60 strokes per min. The tubing which connected the tracheal cannula with the ventilator was provided with a branch leading to the bronchospasm transducer (bronchospasm transducer 7020, Ugo Basile, Italy). The air flow measurement is based on the hot wire anemometer principle. Any air flow will reduce the temperature of the wire, thereby decreasing its resistance in proportion of the flow. As the wire element is one arm of a Weaststone bridge, variations in resistance generate a proportional voltage output which feeds the amplifier/recording system (Notocord-hem, Notocord, France). Blood pressure and heart rate are monitored from a carotid artery in order to check the anesthesia and the variability of the preparation.
Guinea pigs were sensitized on 2 consecutive days with 20 μg ovalbumin (OVA) (Sigma, St. Louis, Mo.) and 20 mg Al(OH)3 in 0.5 mL saline, which were administered subcutaneously. Experiments, which included OVA challenge, were conducted 2 weeks after sensitization. Approximately 1 hour before OVA challenge, the animals were anaesthetized with an intraperitoneal injection of 50 mg/kg pentobarbital. Anesthesia was prolonged by intravenous infusion of pentobarbital (15 mg/kg/h) via the jugular vein. A tracheal cannula was introduced after tracheotomy for artificial ventilation. The internal jugular vein was cannulated for drug injection while the left carotid artery was cannulated for measuring blood pressure and heart rate. The test compounds or combinations of compounds were administered orally 2 hours before the OVA challenge. Pyrilamin (anti-histaminic) is injected intravenously at 2 mg/kg, 6 minutes before OVA challenge in order to record the non histamine-related bronchospasm. The OVA challenge induces mast cell degranulation responsible for the bronchospasm due to the release into the lung of inflammatory mediators such as histamine, leukotrienes, prostaglandins and tromboxanes. The pre-treatment of the guinea pigs with pyrilamin prevents the part of the bronchospasm induced by histamine (around 40 to 50% of the bronchospasm). 30 Minutes after the beginning of air flow and blood pressure measurements, bronchoconstriction is triggered by an OVA challenge given at a fixed dose of 50 μg/kg inhaled.
The control group comprises 12 guinea-pigs, test compounds comprise 2 to 4 guinea-pigs. At the end of the experiment, animals are euthanized by an overdose of pentobarbital (100 mg/kg i.v.).
OVA challenge in control guinea-pigs induces an overflow of 33 (±10) ml which is used as 100% bronchospasm. Bronchoprotection of the drug (i.e. inhibition of OVA broncho-constriction) is expressed as a percentage of inhibition of the increase in overflow induced by OVA in the control animals.

[1] = CRTH2 antagonist (1) 0.001 mg/kg p.o. alone
[2] = CRTH2 antagonist (1) 0.003 mg/kg p.o. alone
[3] = CRTH2 antagonist (1) 0.01 mg/kg p.o. alone
[4] = CRTH2 antagonist (1) 0.03 mg/kg p.o. alone
[5] = CRTH2 antagonist (1) 0.1 mg/kg p.o. alone
[6] = CRTH2 antagonist (1) 0.3 mg/kg p.o. alone
[7] = CRTH2 antagonist (1) 1.0 mg/kg p.o. alone
[8] = CRTH2 antagonist (1) 3.0 mg/kg p.o. alone
[9] = CRTH2 antagonist (1) 10.0 mg/kg p.o. alone

Compound | bronchoprotection [1] | overflow [1] | bronchoprotection [2] | overflow [2] | bronchoprotection [3] | overflow [3] | bronchoprotection [4] | overflow [4] | bronchoprotection [5] | overflow [5] | bronchoprotection [6] | overflow [6] | bronchoprotection [7] | overflow [7] | bronchoprotection [8] | overflow [8] | bronchoprotection [9] | overflow [9] | overflow (Roflumilast 0.03 mg/kg p.o. alone, 2 hours before OVA challenge) | bronchoprotection (Roflumilast 0.03 mg/kg p.o. alone, 2 hours before OVA challenge, inhibition of OVA-induced overflow vs control)
CN(C)c1nc(Cc2ccc(NC(=O)c3ccc(C(F)(F)F)cc3)cc2)nc(N(C)C)c1CC(=O)O [CRTH2 antagonist (1), [4,6-bis(dimethylamino)-2-(4-(4-(trifluoromethyl)benzamido)-benzyl)pyrimidin-5-yl]acetic acid] | 0% | 38 mL | 0% | 35 mL | 0% | 40 mL | 0% | 33 mL | 0% | 41 mL | 24% | 25 mL | 42% | 19 mL | 64% | 12 mL | 70% | 10 mL | – | –
O=C(Nc1c(Cl)cncc1Cl)c1ccc(OC(F)F)c(OCC2CC2)c1 [Roflumilast, roflumilast, reference compound] | – | – | – | – | – | – | – | – | – | – | – | – | – | – | – | – | – | – | 28 mL | 15%
